Results from ChEMBL document CHEMBL5338769, “Discovery of Norisoboldine Analogue III11 as a Novel and Potent Aryl Hydrocarbon Receptor Agonist for the Treatment of Ulcerative Colitis” (J Med Chem, 2023).
Each block holds one compound with its values, some of them ahead of it. Calls of active or inactive are those of the source. The rule behind the calls is not given here.

How the values were obtained:
Mus musculus [1] = assay: Anti-colitis activity in DSS-induced ulcerative colitis C57BL/6 mouse model assessed as CD4+CD25+Foxp3+ Treg cell percentage in spleen at 100 mg/kg, po administered once a day for 10 days by flow cytometric analysis (reference value: 3.3%); assay type: functional; details: time 10 day
Mus musculus [2] = assay: Anti-colitis activity in DSS-induced ulcerative colitis C57BL/6 mouse model assessed as CD4+CD25+Foxp3+ Treg cell percentage in mesenteric lymph nodes at 100 mg/kg, po administered once a day for 10 days by flow cytometric analysis (reference value: 4.5 %); assay type: functional; details: time 10 day
Mus musculus [3] = assay: In vivo activation of AhR in C57BL/6 mouse assessed as increase in CYP1A1 mRNA expression at 100 mg/kg, po administered once a day for 10 days by qRT-PCR analysis; assay type: functional, organism-based; details: time 10.0 day
[4] = biological target: T1, Aryl hydrocarbon receptor (Mus musculus, UniProt P30561); assay: Activation of AhR transcription in C57BL/6 mouse naive T cells assessed as increase in CYP1A1 mRNA expression by measuring fold change at 3 uM by qRT-PCR analysis relative to control; assay type: cell-based; details: T-cell, read-out: FC
T1 sequence (P30561 whole entry): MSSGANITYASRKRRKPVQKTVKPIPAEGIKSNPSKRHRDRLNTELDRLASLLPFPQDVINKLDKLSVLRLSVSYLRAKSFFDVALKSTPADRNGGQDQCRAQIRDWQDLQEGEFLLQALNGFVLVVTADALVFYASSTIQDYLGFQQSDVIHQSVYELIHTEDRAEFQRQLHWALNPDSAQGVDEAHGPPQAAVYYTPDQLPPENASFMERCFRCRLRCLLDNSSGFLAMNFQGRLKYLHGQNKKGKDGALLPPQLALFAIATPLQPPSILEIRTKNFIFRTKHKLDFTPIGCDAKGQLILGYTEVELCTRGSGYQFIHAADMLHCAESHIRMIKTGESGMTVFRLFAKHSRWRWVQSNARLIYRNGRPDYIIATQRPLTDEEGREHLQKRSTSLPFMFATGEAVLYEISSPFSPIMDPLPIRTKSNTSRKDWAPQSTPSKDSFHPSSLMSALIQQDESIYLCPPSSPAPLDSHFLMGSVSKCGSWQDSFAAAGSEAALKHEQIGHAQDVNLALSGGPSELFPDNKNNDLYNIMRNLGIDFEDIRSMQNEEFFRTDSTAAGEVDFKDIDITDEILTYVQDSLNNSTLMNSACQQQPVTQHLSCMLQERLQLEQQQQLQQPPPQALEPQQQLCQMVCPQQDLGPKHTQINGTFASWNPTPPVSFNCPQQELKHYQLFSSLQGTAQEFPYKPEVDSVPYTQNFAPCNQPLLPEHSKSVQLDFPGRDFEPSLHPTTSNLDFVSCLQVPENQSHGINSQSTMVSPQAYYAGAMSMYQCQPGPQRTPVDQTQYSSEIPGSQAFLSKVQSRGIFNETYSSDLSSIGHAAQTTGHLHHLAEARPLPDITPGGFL

[5] = Induction of cell differentiation in C57BL/6 mouse naive regulatory T cells assessed as increase in cell frequency at 3 uM incubated for 72 hrs by flow cytometric analysis (reference value: 24.9%); assay type: functional
Mus musculus [6] = assay: Anti-colitis activity in DSS-induced ulcerative colitis C57BL/6 mouse model assessed as CD4+CD25+Foxp3+ Treg cell percentage in spleen at 40 mg/kg, po administered once a day for 10 days by flow cytometric analysis (reference value: 3.3%); assay type: functional; details: time 10 day
Mus musculus [7] = assay: Anti-colitis activity against DSS-induced ulcerative colitis C57BL/6 mouse model assessed as decrease in colon MPO activity at 40 mg/kg, po administered once a day for 10 days; assay type: functional, organism-based; details: time 10.0 day
Mus musculus [8] = assay: Anti-colitis activity in DSS-induced ulcerative colitis C57BL/6 mouse model assessed as increase in CD4+CD25+Foxp3+ Treg cell ratio in mesenteric lymph nodes at 40 mg/kg, po administered once a day for 10 days by flow cytometric analysis (reference value: 4.5 %); assay type: functional; details: time 10 day
[9] = Induction of cell differentiation in C57BL/6 mouse naive regulatory T cells assessed as increase in […] mRNA level by measuring fold change at 3 uM incubated for 72 hrs by qRT-PCR analysis; assay type: functional
Mus musculus [10] = assay: In vivo activation of AhR in C57BL/6 mouse assessed as increase in CYP1A1 mRNA expression at 40 mg/kg, po administered once a day for 10 days by qRT-PCR analysis; assay type: functional, organism-based; details: time 10.0 day
[11] = Induction of cell differentiation in C57BL/6 mouse naive regulatory T cells assessed as increase in IL-10 mRNA level by measuring fold change at 3 uM incubated for 72 hrs by qRT-PCR analysis; assay type: functional

SMILES: Nc1ccc(O)c(C(=O)O)c1 [MESALAMINE]
Activity (Mus musculus [1]): 2.6%
Activity (Mus musculus [2]): 4.4%
Activity (Mus musculus [3]): Active

fold induction at 3 µM [4]: 1.9
SMILES: c1ccc2c(Cc3c[nH]c4ccccc34)c[nH]c2c1 [ARUNDINE]
Activity [5]: 34.3%
Activity (Mus musculus [6]): 2.7%
Activity (Mus musculus [7]): Active
Activity (Mus musculus [8]): 6.8%
fold change (FC) [9]: 2.1
Activity (Mus musculus [10]): Active
fold change (FC) [11]: 2
